Structures are written as SMILES.

For data set [1], the target named is T1, Vascular endothelial growth factor receptor 2 (Homo sapiens, UniProt P35968). Put plainly: Inhibition of Vascular endothelial growth factor receptor 2(KDR) without DTT (dithiothreitol).
The target of data set [2] is T1, Vascular endothelial growth factor receptor 2. Put plainly: Inhibition of Vascular endothelial growth factor receptor 2(KDR) with DTT (dithiothreitol).
Data set [3] can be described thus: Percent remaining after incubation with NADPH in S9 cell was determined. The class given is ADME, cell-based.

T1 sequence (P35968 whole entry): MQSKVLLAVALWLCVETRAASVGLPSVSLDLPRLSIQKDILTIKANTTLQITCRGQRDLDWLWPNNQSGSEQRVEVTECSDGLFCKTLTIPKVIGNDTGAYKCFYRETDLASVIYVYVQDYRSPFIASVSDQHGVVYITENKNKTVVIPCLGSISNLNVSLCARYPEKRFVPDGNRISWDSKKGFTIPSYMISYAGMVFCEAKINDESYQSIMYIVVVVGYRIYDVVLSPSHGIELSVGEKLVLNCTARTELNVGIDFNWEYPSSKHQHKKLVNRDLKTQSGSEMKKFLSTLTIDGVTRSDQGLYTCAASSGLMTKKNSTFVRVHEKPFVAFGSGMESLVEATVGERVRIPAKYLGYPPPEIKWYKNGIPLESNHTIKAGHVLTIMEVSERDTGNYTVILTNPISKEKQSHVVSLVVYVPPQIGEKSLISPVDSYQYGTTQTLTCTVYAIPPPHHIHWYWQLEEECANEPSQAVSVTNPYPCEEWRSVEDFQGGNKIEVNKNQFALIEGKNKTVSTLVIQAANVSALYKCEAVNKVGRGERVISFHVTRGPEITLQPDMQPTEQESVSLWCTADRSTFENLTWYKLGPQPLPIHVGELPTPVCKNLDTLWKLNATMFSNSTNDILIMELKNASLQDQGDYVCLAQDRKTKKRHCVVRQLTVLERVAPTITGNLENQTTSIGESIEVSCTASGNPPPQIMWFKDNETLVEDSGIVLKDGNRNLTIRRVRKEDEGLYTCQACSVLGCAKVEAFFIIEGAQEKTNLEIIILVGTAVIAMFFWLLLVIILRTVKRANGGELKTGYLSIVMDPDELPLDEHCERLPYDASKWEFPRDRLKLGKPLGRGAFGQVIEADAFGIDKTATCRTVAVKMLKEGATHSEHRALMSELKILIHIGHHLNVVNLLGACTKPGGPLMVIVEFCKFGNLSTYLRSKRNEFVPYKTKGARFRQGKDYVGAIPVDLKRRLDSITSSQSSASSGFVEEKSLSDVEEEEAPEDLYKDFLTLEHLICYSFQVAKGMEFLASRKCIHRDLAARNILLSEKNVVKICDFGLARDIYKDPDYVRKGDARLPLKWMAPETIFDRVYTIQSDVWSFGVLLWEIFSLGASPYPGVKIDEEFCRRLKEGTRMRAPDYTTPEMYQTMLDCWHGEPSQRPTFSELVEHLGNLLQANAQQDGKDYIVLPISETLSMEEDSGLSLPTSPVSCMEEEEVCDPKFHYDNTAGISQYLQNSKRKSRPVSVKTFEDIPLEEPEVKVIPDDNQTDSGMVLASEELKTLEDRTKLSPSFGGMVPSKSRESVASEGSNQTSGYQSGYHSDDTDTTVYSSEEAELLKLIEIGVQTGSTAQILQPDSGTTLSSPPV

`O=C1NN=C(c2cnccn2)/C1=C/c1[nH]c2ccccc2c1-c1ccccc1`: the values for the half-inhibitory concentration (IC50) in data set [1] and in data set [2] were 20 nM and 470 nM, respectively.

Turning to `O=C1Nc2ccccc2S/C1=C\c1c[nH]c2c(C(=O)N3CCC(N4CCCCC4)CC3)cccc12`, the IC50 in data set [1] is 720 nM; in data set [2], 170 nM.

Regarding `CCN(CC)CCc1c(C)[nH]c(/C=C2\C(=O)NN=C2c2cnccn2)c1C`, the IC50 in data set [1] amounted to 210 nM; in data set [2], 80 nM. The compound also had a Remaining activity in data set [3] of 72%.

For the compound `Cc1c(/C=C2\C(=O)NN=C2c2cnccn2)[nH]c2ccccc12`, the half-maximal inhibitory concentration (IC50) was 60 nM in data set [1] and 140 nM in data set [2].

`Cc1[nH]c(/C=C2\C(=O)NN=C2c2cnccn2)c(C)c1CN(C)C` gave a Remaining activity in data set [3] of 18%.

As to `O=C1Nc2ccccc2S/C1=C\c1c[nH]c2cc(OCCN3CCOCC3)ccc12`, the results for the half-inhibitory concentration (IC50) in data set [1] and in data set [2] were 290 nM and 160 nM, respectively.

For the compound `O=C1NN=C(c2cnccn2)/C1=C/c1cc2ccccc2[nH]1`, the IC50 in data set [1] is 410 nM; in data set [2], 40000 nM.

As for `CCN(CC)CCc1c(C)[nH]c(/C=C2\C(=O)NN=C2C2CC2)c1C`, the concentration for half-maximal inhibition (IC50) in data set [1] stood at 2500 nM; in data set [2] it was 840 nM. The Remaining activity in data set [3] is 80%.

These data come from ChEMBL document CHEMBL1138015, “A 13C NMR approach to categorizing potential limitations of alpha,beta-unsaturated carbonyl systems in drug-like molecules” (Bioorg Med Chem Lett, 2004).
